Several values for one entry are separate records, joined by “and”; a condition that tells them apart may be missing. Equal entries are not always repeated.
Key:
[1] = system: L. amazonensis promastigotes; assay: Neutral lipid quantification (Nile Red); type: cell-based, Leishmania amazonensis; settings: 24 h; 2 at 33.8 μM, 3 at 11.4 μM
Description: After 24 h of exposure, the parasites (1x10^7 cells/well) were stained with 10 μg/mL Nile Red (Sigma-Aldrich, St. Louis, MO, USA) in the dark for 20 min at 25°C. Fluorescence intensity was analysed in a spectrofluorometer (BioTek Instruments, Inc., Winooski, VT, USA) using 485/528 nm excitation/emission.

[2] = system: L. infantum promastigotes; assay: Antiproliferation assay: L. infantum promastigotes (72 h), MTT; type: cell-based, Leishmania infantum (MCAN/BR/2008/1112); settings: Leishmania infantum, 72 h, 72 h exposure
Description: (§1) Leishmania amazonensis promastigotes (IFLA/BR/1967/PH8) for the 24 h exposure test were cultivated in RPMI 1640, supplemented with 20% v/v heat inactivated fetal bovine serum (FBS) and incubated at 26°C until near the end of the log growth phase. Leishmania amazonensis (IFLA/BR/1967/PH8) and L. infantum (MCAN/BR/2008/1112) promastigotes used in the 72 h exposure test were cultivated in Warren’s medium (containing brain heart infusion- BHI plus hemin and folic acid), supplemented with 10% FBS, 0.1% of the antibiotics: 100 UI/mL penicillin G and 0.1 mg/mL streptomycin. Leishmania amazonensis (IFLA/BR/1967/PH8) transfected with the red fluorescent protein (RFP) gene was cultured in M199 medium (containing 0.1 mmol/L adenine, 40 mmol/L hepes, 0.0005% hemin and 0.0002% biotin), supplemented with 10% FBS, and 0.1% of the antibiotic. Parasites were maintained at 25°C in a BOD incubator.
(§2) Extracts and isolated compounds were tested against L. amazonensis promastigotes (IFLA/BR/1967/PH8 strain - 2x10^5 cells/well) and L. infantum promastigotes (MCAN/BR/2008/1112 strain - 3x10^5 cells/well). The samples were solubilized in DMSO (<1%), serially diluted (100 μg/mL to 1.56 μg/mL) and tested in a 96-well plate to obtain a dose-response curve. Miltefosine and DMSO were used as positive and negative controls, respectively. After 72 h, 10 μL of 3-(4,5-dimethylthiazol-2-yl)-2,5-diphenyl tetrazolium bromide (5 mg/mL—MTT, Sigma-Aldrich) solution was added to each well and the plate returned to the incubator for an additional 4 h. To halt the reaction, 100 μL acidified isopropanol was added to each well. Plates were read at 570 nm in a microplate reader (Multiskan MS, LabSystems Oy, Helsinki, Finland).

L. infantum amastigotes = L. infantum amastigotes assay (Giemsa, infection index); type: cell-based, Leishmania infantum
Description: Peritoneal macrophages (6 x 10^5 cells) were plated on round glass coverslips within 24-well plates in RPMI 1640 medium supplemented with FBS and 20 mM L-glutamine, pH 7.2, and incubated for 24 h at 37°C in 5% CO2. Stationary-phase promastigotes (6 x 10^6 cells, at a ratio of 10 parasites per macrophage) were then added to the wells, and cultures incubated for 24 h at 37°C in 5% CO2. Non-internalized parasites were removed by extensive PBS solution washing and infected macrophages subsequently treated with nontoxic concentrations of: compound 3 (6.25 μg/mL to 0.18 μg/mL) or miltefosine (10.0 μg/mL to 0.6 μg/mL, positive control) for 72 h at 37°C in 5% CO2. After compound exposure, cells were fixed with absolute ethanol and stained with Giemsa. A total of 200 macrophages were counted under a light microscope. The infection index was determined by the […] percentage of infected macrophages multiplied by the mean number of amastigotes per macrophage out of 200 macrophages.

[3] = system: L. amazonensis promastigotes; assay: Cell membrane integrity (propidium iodide); type: cell-based, Leishmania amazonensis; settings: 24 h; 2 at 33.8 μM, 3 at 11.4 μM
Description: Plates were incubated with propidium iodide (PI) (1.0 μg/mL—Sigma-Aldrich, USA, St. Louis, MO, USA) for 15 min in the dark at RT. Fluorescence was measured using a spectrofluorometer (FLx800, BioTek Instruments, Inc., Winooski, VT, USA) with 540/600 nm excitation/emission. Parasites heated at 65 °C were used as the positive control.

[4] = system: L. amazonensis promastigotes; assay: Transmission electron microscopy (TEM); type: cell-based, Leishmania amazonensis; settings: 11.4 μM, 24 h
Description: Leishmania amazonensis promastigotes (10^7 cells/mL) were treated with compound 3 (11.4 μM) or incubated with controls (medium alone or medium plus 0.01% DMSO) for 24 h at 26°C. The parasites were subsequently washed in PBS, fixed in 2.5% glutaraldehyde (in 0.1 M sodium cacodylate buffer) at pH 7.2 for 45 min at room temperature. After fixation, the specimens were washed three times successively with 0.1 M sodium cacodylate buffer, and postfixed in 1% osmium tetroxide, 0.8% potassium ferricyanide, and 5 mM of the CaCl2 in 0.1 M of the sodium cacodylate buffer (0.1 M, pH 7.2). Dehydration was performed in acetone, followed by the embedding resin (Spur, Sigma-Aldrich®). Ultrathin sections were contrasted with uranyl acetate and lead citrate and observed under a transmission electron microscope (JEOL 1011).

[5] = system: L. amazonensis promastigotes; assay: Mitochondrial membrane potential (MitoTracker); type: cell-based, Leishmania amazonensis; settings: 24 h; 2 at 33.8 μM, 3 at 11.4 μM; FCCP 5.0 μM for 10 min
Description: After 24 h of incubation at 25°C, the parasite concentration was adjusted to 5x10^6 cells/mL and stained with 500 nM MitoTracker (Invitrogen, Eugene, OR, USA) in the dark for 40 min at 37°C. After washing twice with PBS, samples were transferred in triplicate to a black 96-well plate, and fluorescence measured in a spectrofluorometer (FLx800, BioTek Instruments, Inc., Winooski, VT, USA) at 540/600 nm excitation/emission. […] Louis, MO, USA) for 10 min were used to obtain maximal mitochondrial depolarization (positive control).

[6] = system: L. amazonensis promastigotes; assay: Reactive oxygen species (ROS) detection (H2DCFDA); type: cell-based, Leishmania amazonensis; settings: 24 h; 2 at 33.8 μM, 3 at 11.4 μM
Description: Fluorescence intensity was detected using a fluorimetric microplate reader (FLx800, BioTek Instruments, Inc., Winooski, VT, USA), at 485/528 nm excitation/emission. Promastigotes incubated with miltefosine (44.2 μM) were used as a positive control.

[7] = system: L. amazonensis promastigotes; assay: Antiproliferation assay: L. amazonensis promastigotes (72 h), MTT; type: cell-based, Leishmania amazonensis (IFLA/BR/1967/PH8); settings: Leishmania amazonensis; 72 h exposure
Description: as §1, §2

C=C[C@@H](c1cc(CC=C(C)C)ccc1O)c1cc(CC=C(C)C)c(OC)cc1O [Compound 3, connarin]
increase in neutral lipid levels in relation to the untreated control [1]: 82.0%
IC50 [2]: 5.2 µg/mL and 13.3 µM
SI (Selectivity Index) (L. infantum amastigotes; L. infantum amastigotes): 2.4
IC50 (L. infantum amastigotes; Leishmania infantum, intracellular, 72 h): 7.7 µM
plasma membrane integrity (PI-positive parasites) [3]: did not interfere with plasma membrane permeation
ultrastructural modification (TEM) [4]: showed lipid bodies and the presence of vacuoles
reduction in mitochondrial membrane potential (ΔΨm) [5]: 26.5%
ROS level [6]: no alteration in the ROS level
IC50 [7]: 4.5 µg/mL and 11.4 µM
